Read-outs that look alike come from different tables or passages of the source.
Columns and labels:
[1] = target: T1, glutathione-S-transferase (GST) tagged LXRbeta LBD (ligand binding domain) (Homo sapiens, UniProt P55055); test: LanthaScreen TR-FRET Liver X Receptor Coactivator Assay, co-activator recruitment to LXRbeta LBD; type: biochemical
T1 construct: purchased Invitrogen pv4658.pps
T1 sequence (P55055 222-460 limits assumed): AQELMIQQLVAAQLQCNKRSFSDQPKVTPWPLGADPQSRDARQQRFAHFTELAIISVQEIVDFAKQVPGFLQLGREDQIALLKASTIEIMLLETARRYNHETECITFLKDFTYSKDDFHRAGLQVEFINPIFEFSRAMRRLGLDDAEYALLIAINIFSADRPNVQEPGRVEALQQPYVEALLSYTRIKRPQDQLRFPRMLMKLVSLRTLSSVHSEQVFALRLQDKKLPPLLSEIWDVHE
Method in brief: (§1)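 GST-tagged LBD added to test compound, then fluorescein-labelled coactivator peptide plus terbium anti-GST antibody; incubated at room temperature, TR-FRET read. Potency given as inflection point and efficacy as Emax relative to reference dual agonist T0901317.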

[2] = target: T2, glutathione-S-transferase (GST) tagged LXRalpha LBD (ligand binding domain) (Homo sapiens, UniProt Q13133); test: LanthaScreen TR-FRET Liver X Receptor Coactivator Assay, co-activator recruitment to LXRalpha LBD; type: biochemical
T2 construct: purchased Invitrogen pv4655
T2 sequence (Q13133 209-447 limits assumed): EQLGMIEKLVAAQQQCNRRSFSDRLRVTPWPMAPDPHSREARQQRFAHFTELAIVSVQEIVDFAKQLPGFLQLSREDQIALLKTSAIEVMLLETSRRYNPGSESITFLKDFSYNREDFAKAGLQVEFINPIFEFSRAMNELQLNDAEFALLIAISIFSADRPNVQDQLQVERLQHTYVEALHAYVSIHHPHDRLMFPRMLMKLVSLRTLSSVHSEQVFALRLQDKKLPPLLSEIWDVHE
Method in brief: as §1

[3] = efficacy at max dose, in relation to reference dual agonist T0901317, read-out: LXR beta Activity @ max dose (%)
[4] = potency (Inflection Point, IP), co-activator recruitment to LXRbeta LBD, in relation to T0901317, read-out: LXR beta IP
[5] = efficacy at max dose, in relation to reference dual agonist T0901317, read-out: LXR alpha Activity @ max dose (%)
[6] = potency (Inflection Point, IP), co-activator recruitment to LXRalpha LBD, in relation to T0901317
[7] = co-activator recruitment to GST-LXRbeta LBD, TR-FRET, read-out: LXR beta IP (Inflection Point, potency)
[8] = efficacy in relation to reference dual agonist T0901317, read-out: LXR beta Activity @ max dose
[9] = co-activator recruitment to GST-LXRalpha LBD, TR-FRET, read-out: LXR alpha IP (Inflection Point, potency)
[10] = efficacy in relation to reference dual agonist T0901317, read-out: LXR alpha Activity @ max dose
[11] = potency (Inflection Point, IP), co-activator recruitment to LXRalpha LBD, in relation to T0901317, read-out: LXR alpha IP
[12] = efficacy at max dose, in relation to reference dual agonist T0901317

Row | Emax [1, 3] | EC50 [1, 4] | Emax [2, 5] | LXR alpha IP (nM) [2, 6] | EC50 [1, 7] | Emax [1, 8] | EC50 [2, 9] | Emax [2, 10] | EC50 [2, 11] | SMILES | LXR beta Activity @ max dose (%) [1, 12] | LXR alpha Activity @ max dose (%) [2, 12]
1 | 54% | 73 nM | 7% | NO IP | – | – | – | – | – | O=C(NCCn1cncn1)c1ccc(N2CCC(CC3CCN(C(=O)[C@](O)(c4cc(Cl)cc(Cl)c4)C(F)(F)F)CC3)CC2)cc1Cl [Example 7-130, 2-chloro-4-[4-({1-[(2R)-2-(3,5-dichlorophenyl)-3,3,3-trifluoro-2-hydroxypropanoyl]piperidin-4-yl}methyl)piperidin-1-yl]-N-[2-(1H-1,2,4-triazol-1-yl)ethyl]benzamide] | – | –
2 | – | – | – | – | 26 nM | 67% | 264 nM | 43% | – | CN(C)C(=O)c1ccc(N2CCC(CC3CCN(S(=O)(=O)c4cccs4)CC3)CC2)cc1Cl [Example 13-4, 2-chloro-N,N-dimethyl-4-(4-{[1-(thiopen-2-ylsulfonyl)piperidin-4-yl]methyl}piperidin-1-yl)benzamide] | – | –
3 | 82% | 169 nM | 19% | – | – | – | – | – | 2190 nM | CNC(=O)c1ccc(N2CCC(CC3CCN(C(=O)C4(c5ccccc5F)CCCC4)CC3)CC2)cc1Cl [Example 7-34, 2-chloro-4-{4-[(1-{[1-(2-fluorophenyl)cyclopentyl]carbonyl}piperidin-4-yl)methyl]piperidin-1-yl}-N-methylbenzamide] | – | –
4 | 133% | 99 nM | 81% | – | – | – | – | – | 2550 nM | CNC(=O)c1ccc(N2CCC(CC3CCN(C(=O)C(O)(c4cccnc4)C(F)(F)F)CC3)CC2)nc1Cl (centres unmarked) [Example 7-142, 2-chloro-N-methyl-6-(4-{[1-(3,3,3-trifluoro-2-hydroxy-2-pyridin-3-ylpropanoyl)piperidin-4-yl]methyl}piperidin-1-yl)pyridine-3-carboxamide] | – | –
5 | 92% | 22 nM | 14% | NO IP | – | – | – | – | – | COc1cccc([C@@](O)(C(=O)N2CC(CC3CCN(c4ccc(C(=O)N(C)C)c(Cl)n4)CC3)C2)C(F)(F)F)c1 [Example 7-45, 2-chloro-N,N-dimethyl-6-[4-({1-[(2R)-3,3,3-trifluoro-2-hydroxy-2-(3-methoxyphenyl)propanoyl]azetidin-3-yl}methyl)piperidin-1-yl]pyridine-3-carboxamide] | – | –
6 | 84% | 4 nM | 22% | – | – | – | – | – | 41 nM | COc1cc(F)cc([C@@](O)(C(=O)N2CCC(CC3CCN(c4ccc(C(=O)N(C)C)c(Cl)n4)CC3)CC2)C(F)(F)F)c1 [Example 7-101, 2-chloro-N,N-dimethyl-6-[4-({1-[(2R)-3,3,3-trifluoro-2-(3-fluoro-5-methoxyphenyl)-2-hydroxypropanoyl]piperidin-4-yl}methyl)piperidin-1-yl]pyridine-3-carboxamide] | – | –
7 | 77% | 20 nM | 44% | – | – | – | – | – | 343 nM | CNC(=O)c1ccc(N2CCC(CC3CCN(C(=O)[C@](O)(c4ccccc4)C(F)(F)F)CC3)CC2)cc1Cl [Example 7-25, 2-chloro-N-methyl-4-[4-({1-[(2R)-3,3,3-trifluoro-2-hydroxy-2-phenylpropanoyl]piperidin-4-yl}methyl)piperidin-1-yl]benzamide] | – | –
8 | – | – | – | – | 60 nM | 67% | 1190 nM | 25% | – | CN(C)C(=O)c1ccc(N2CCC(CC3CCN(S(=O)(=O)c4cccc(F)c4)CC3)CC2)cc1Cl [Example 13-7, 2-chloro-4-[4-({1-[(3-fluorophenyl)sulfonyl]-piperidin-4-yl}methyl)-piperidin-1-yl]-N,N-dimethylbenzamide] | – | –
9 | 79% | 5 nM | 20% | – | – | – | – | – | 49 nM | COc1cc(F)cc([C@@](O)(C(=O)N2CCC(CC3CCN(c4ccc(C(N)=O)c(Cl)c4)CC3)CC2)C(F)(F)F)c1 [Example 12-3, 2-chloro-4-[4-({1-[(2R)-3,3,3-trifluoro-2-(3-fluoro-5-methoxy-phenyl)-2-hydroxy-propanoyl]piperidin-4-yl}methyl)-piperidin-1-yl]-benzamide] | – | –

The next lines start with the compound.

Row | SMILES | Emax [1, 3] | EC50 [1, 4] | Emax [2, 5] | LXR alpha IP (nM) [2, 6] | EC50 [1, 7] | Emax [1, 8] | EC50 [2, 9] | Emax [2, 10] | EC50 [2, 11] | LXR beta Activity @ max dose (%) [1, 12] | LXR alpha Activity @ max dose (%) [2, 12]
10 | O=C(c1ccc(N2CCC(CC3CCN(C(=O)[C@](O)(c4cc(Cl)cc(Cl)c4)C(F)(F)F)CC3)CC2)cc1Cl)N1CC[C@@H](O)C1 [Example 4-22, (3R)-1-({2-chloro-4-[4-({1-[(2R)-2-(3,5-dichloro-phenyl)-3,3,3-trifluoro-2-hydroxypropanoyl]piperidin-4-yl}methyl)piperidin-1-yl]phenyl}carbonyl) pyrrolidin-3-ol] | 38% | 35 nM | 0% | NO IP | – | – | – | – | – | – | –
11 | CN(C)C(=O)c1ccc(N2CCC(CC3CCN(C(=O)[C@](O)(c4cccc(CC#N)c4)C(F)(F)F)CC3)CC2)cc1Cl [Example 2-120, 2-chloro-4-{4-[(1-{(2R)-2-[3-(cyanomethyl)phenyl]-3,3,3-trifluoro-2-hydroxy-propanoyl}piperidin-4-yl)methyl]piperidin-1-yl}-N,N-dimethyl-benzamide] | 46% | 16 nM | 6% | NO IP | – | – | – | – | – | – | –
12 | COc1cccc([C@@](O)(C(=O)N2CCC(OC3CCN(c4ccc(C(=O)N(C)C)c(Cl)c4)CC3)CC2)C(F)(F)F)c1 [Example 2-28, 2-chloro-N,N-dimethyl-4-[4-({1-[(2R)-3,3,3-trifluoro-2-hydroxy-2-(3-methoxyphenyl)propanoyl]piperidin-4-yl}oxy)piperidin-1-yl]benzamide] | 87% | 25 nM | 28% | – | – | – | – | – | 1740 nM | – | –
13 | CN(C)C(=O)c1ccc(N2CCC(CC3CCN(C(=O)[C@](O)(c4cccc(Cl)c4)C(F)(F)F)CC3)CC2)cc1Cl [Example 2-86, 2-chloro-4-[4-({1-[(2R)-2-(3-chloro-phenyl)-3,3,3-trifluoro-2-hydroxy-propanoyl]piperidin-4-yl}methyl)piperidin-1-yl]-N,N-dimethyl-benzamide] | 68% | 6 nM | 22% | – | – | – | – | – | 98 nM | – | –
14 | CN(C)C(=O)c1ccc(N2CCC(CC3CCN(C(=O)[C@@](O)(c4ccccc4)C(F)(F)F)CC3)CC2)cc1 [Example 2-127, N,N-dimethyl-4-[4-({1-[(2S)-3,3,3-trifluoro-2-hydroxy-2-phenyl-propanoyl]piperidin-4-yl}methyl)piperidin-1-yl]benzamide] | 68% | 877 nM | 9% | NO IP | – | – | – | – | – | – | –
15 | CN(C)CCN(C)C(=O)c1ccc(N2CCC(CC3CCN(C(=O)[C@](O)(c4ccccc4)C(F)(F)F)CC3)CC2)cc1Cl [Example 4-13, 2-chloro-N-[2-(dimethylamino)ethyl]-N-methyl-4-[4-({1-[(2R)-3,3,3-trifluoro-2-hydroxy-2-phenylpropanoyl]piperidin-4-yl}methyl)piperidin-1-yl]benzamide] | 62% | 21 nM | 30% | – | – | – | – | – | 678 nM | – | –
16 | CN(C)C(=O)c1ccc(N2CCC(CC3CCN(C(=O)[C@](O)(c4ccccc4)C(F)F)CC3)CC2)cc1Cl [Example 2-166, 2-chloro-4-[4-({1-[(2R)-3,3-difluoro-2-hydroxy-2-phenyl-propanoyl]piperidin-4-yl}methyl)piperidin-1-yl]-N,N-dimethyl-benzamide] | 46% | 14 nM | 20% | – | – | – | – | – | 296 nM | – | –
17 | CN(C)C(=O)c1ccc(N2CCC(CC3CCN(C(=O)C(O)(c4cccs4)C(F)(F)F)CC3)CC2)cc1Cl (centres unmarked) [Example 2-37, 2-chloro-N,N-dimethyl-4-(4-{[1-(3,3,3-trifluoro-2-hydroxy-2-thiophen-2-ylpropanoyl)piperidin-4-yl]methyl}piperidin-1-yl)benzamide] | 73% | 29 nM | 33% | – | – | – | – | – | 620 nM | – | –
18 | COc1cccc([C@@](O)(C(=O)N2CCC(CC3CCN(c4ccc(C(=O)N(C)C)c(C)n4)CC3)CC2)C(F)(F)F)c1 [Example 7-8, N,N,2-trimethhyl-6-[4-({1-[(2R)-3,3,3-trifluoro-2-hydroxy-2-(3-methoxyphenyl)propanoyl]piperidin-4-yl}methyl)piperidin-1-yl]pyridine-3-carboxamide] | – | 12 nM | – | – | – | – | – | – | – | 53% | 6%
